Results published in patent publication US20150045551A1, “FUSED AZOLE DERIVATIVE” (TAISHO PHARMACEUTICAL CO., LTD, priority 2012, published 2015).
Where a name gives a salt, the structure may show the parent alone.

Each compound was assayed against T1, Human V1b receptor (Homo sapiens, UniProt P47901) (assay: Binding test for V1b receptor ([3H]AVP displacement, crude membrane preparation)). Conditions: [3H]AVP 0.4 to 1 nmol/L; membranes of 293FT cells transiently expressing human V1b receptor; room temperature, 60 minutes.
T1 sequence (P47901 1-424): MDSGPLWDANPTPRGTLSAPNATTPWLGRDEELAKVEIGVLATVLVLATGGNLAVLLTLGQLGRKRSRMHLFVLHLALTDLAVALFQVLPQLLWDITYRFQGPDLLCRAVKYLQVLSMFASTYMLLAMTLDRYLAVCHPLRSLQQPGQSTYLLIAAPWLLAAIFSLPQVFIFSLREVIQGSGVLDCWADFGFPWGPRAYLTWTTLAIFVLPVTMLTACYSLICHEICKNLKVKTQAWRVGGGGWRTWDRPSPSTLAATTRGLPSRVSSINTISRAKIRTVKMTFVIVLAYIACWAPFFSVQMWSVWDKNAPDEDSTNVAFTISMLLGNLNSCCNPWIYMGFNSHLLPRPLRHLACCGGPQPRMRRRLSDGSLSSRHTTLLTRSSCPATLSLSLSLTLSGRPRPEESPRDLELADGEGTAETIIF
Set-up: expressed in transfected cells; host or cells: 293FT cells (transient expression)
Description: Human V1b receptor was transiently expressed in 293FT cells, which were then recovered and homogenated in a 15 mmol/L tris-hydrochloric acid buffer (pH 7.4 and containing 2 mmol/L magnesium chloride, 0.3 mmol/L ethylenediaminetetracetic acid, and 1 mmol/L glycol ether diaminetetraacetic acid). The resulting homogenate was centrifuged at 50,000×g at 4 ° C. for 20 minutes. The precipitate was resuspended in a 75 mmol/L tris-hydrochloric acid buffer (pH 7.4 and containing 12.5 mmol/L magnesium chloride, 0.3 mmol/L ethylenediaminetetracetic acid, 1 mmol/L glycol ether diaminetetraacetic acid, and 250 mmol/L sucrose) to give a crude membrane preparation, which was stored at −80° C. until the binding test was initiated. In the binding test, the crude membrane preparation was diluted with a 50 mmol/L tris-hydrochloric acid buffer (pH 7.4 and containing 10 mmol/L magnesium chloride and 0.1% bovine serum albumin) and mixed with each test compound and [^3H]AVP (final concentration: 0.4 to 1 nmol/L), followed by incubation at room temperature for 60 minutes. The test compound was serially diluted with DMSO so that it would have final concentrations of 0.01 nmol/L to […] at the time of mixing. After the incubation, the mixture was suction filtered through a GF/C filter that was preliminarily impregnated with 0.3% polyethyleneimine. The GF/C filter was dried and after adding a scintillator, the residual radioactivity on the filter was measured using TopCount (PerkinElmer Inc.). The radioactivity in the presence of unlabeled AVP at 10 μmol/L was defined as 0%, and the radioactivity in the absence of unlabeled AVP was defined as 100%. A dose-response curve was plotted from radioactivities in the presence of a test compound at various concentrations, and the 50% inhibitory concentration (IC50 value) of the test compound was calculated.
Compound `CC(C)NC(=O)Cn1c(-c2cccc(Cl)c2)nc2cc(OCCCN3CCOCC3)ccc21` [Example A-2, 2-{2-(3-chlorophenyl)-5-[3-(morpholin-4-yl)propoxy]-1H-benzimidazol-1-yl}-N-isopropyl acetamide] has an IC50 of 14.1 nM. In the case of `CC(C)NC(=O)Cn1c(-c2cccc(Cl)c2)nc2cc(OCCCN3CC4(COC4)C3)ccc21` [Example A-3, 2-{2-(3-chlorophenyl)-5-[3-(2-oxa-6-azaspiro[3.3]hept-6-yl)propoxy]-1H-benzimidazol-1-yl}-N-isopropyl acetamide], the IC50 is reported as 8.3 nM. `CC(C)NC(=O)Cn1c(-c2cccc(Cl)c2)nc2cc(OCCCN3[C@@H]4CC[C@H]3COC4)ccc21` [Example A-4, 2-[2-(3-chlorophenyl)-5-{3-[(1R,5S)-3-oxa-8-azabicyclo[3.2.1]oct-8-yl]propoxy}-1H-benzimidazol-1-yl]-N-isopropyl acetamide] gave an IC50 of 5 nM. For `COc1cc(-c2nc3cc(OCCCN4CC5(COC5)C4)ccc3n2CC(=O)NC(C)C)ccc1F` [Example A-7, 2-{2-(4-fluoro-3-methoxyphenyl)-5-[3-(2-oxa-6-azaspiro[3.3]hept-6-yl)propoxy]-1H-benzimidazol-1-yl}-N-isopropyl acetamide], the IC50 was 4.8 nM. `COc1cc(-c2nc3cc(OCCCN4[C@@H]5CC[C@H]4COC5)ccc3n2CC(=O)NC(C)C)ccc1F` [Example A-8, 2-[2-(4-fluoro-3-methoxyphenyl)-5-{3-[(1R,5S)-3-oxa-8-azabicyclo[3.2.1]oct-8-yl]propoxy}-1H-benzimidazol-1-yl]-N-isopropyl acetamide] was tested, and the IC50 was 2.5 nM. `COc1cc(-c2nc3ccc(-c4cc(Cl)cc(CN(C)C)c4)cc3n2CC(=O)NC(C)C)ccc1F` [Example A-10, 2-[6-{3-chloro-5-[(dimethylamino)methyl]phenyl}-2-(4-fluoro-3-methoxyphenyl)-1H-benzimidazol-1-yl]-N-isopropyl acetamide] gave an IC50 of 141 nM. `CC(C)NC(=O)Cn1c(-c2ccc(F)c(Cl)c2)nc2cc(OCCCN3CCCCC3)ccc21` [Example A-12, 2-{2-(3-chloro-4-fluorophenyl)-5-[3-(piperidin-1-yl)propoxy]-1H-benzimidazol-1-yl}-N-isopropyl acetamide hydrochloride] was tested, and the IC50 was 7.6 nM. `CC(C)NC(=O)Cn1c(-c2ccc(F)c(Cl)c2)nc2cc(OCCCN3CC4(COC4)C3)ccc21` [Example A-15, 2-{2-(3-chloro-4-fluorophenyl)-5-[3-(2-oxa-6-azaspiro[3.3]hept-6-yl)propoxy]-1H-benzimidazol-1-yl}-N-isopropyl acetamide] was tested, and the IC50 was 3.8 nM. In the case of `CC(C)NC(=O)Cn1c(-c2ccc(F)c(Cl)c2)nc2cc(OCCCN3[C@@H]4CC[C@H]3COC4)ccc21` [Example A-16, 2-[2-(3-chloro-4-fluorophenyl)-5-{3-[(1R,5S)-3-oxa-8-azabicyclo[3.2.1]oct-8-yl]propoxy}-1H-benzimidazol-1-yl]-N-isopropyl acetamide], the IC50 is reported as 1.7 nM. In the case of `CC(C)NC(=O)Cn1c(-c2ccc(F)c(Cl)c2)nc2cc(OCCCCN3CCCCC3)ccc21` [Example A-17, 2-{2-(3-chloro-4-fluorophenyl)-5-[4-(piperidin-1-yl)butoxy]-1H-benzimidazol-1-yl}-N-isopropyl acetamide], the IC50 is reported as 176 nM. `COc1cccc(-c2nc3cc(OCCCN4CCOCC4)ccc3n2CC(=O)NC(C)C)n1` [Example A-18, N-isopropyl-2-{2-(6-methoxypyridin-2-yl)-5-[3-(morpholin-4-yl)propoxy]-1H-benzimidazol-1-yl}acetamide] gave an IC50 of 83.6 nM. Compound `COc1cc(-c2nc3cc(N4CCCN(C)CC4)ccc3n2CC(=O)NC(C)(C)C)ccc1F` [Example A-19, N-tert-butyl-2-[2-(4-fluoro-3-methoxyphenyl)-5-(4-methyl-1,4-diazepan-1-yl)-1H-benzimidazol-1-yl]acetamide] has an IC50 of 3.4 nM. `COc1cc(-c2nc3cc(N4CCCN(C(C)C)CC4)ccc3n2CC(=O)NC(C)(C)C)ccc1F` [Example A-20, N-tert-butyl-2-[2-(4-fluoro-3-methoxyphenyl)-5-(4-isopropyl-1,4-diazepan-1-yl)-1H-benzimidazol-1-yl]acetamide] gave an IC50 of 8.6 nM. With `COc1cc(-c2nc3cc(N4CCC(N5CCCC5)CC4)ccc3n2CC(=O)NC(C)(C)C)ccc1F` [Example A-21, N-tert-butyl-2-{2-(4-fluoro-3-methoxyphenyl)-5-[4-(pyrrolidin-1-yl)piperidin-1-yl]-1H-benzimidazol-1-yl}acetamide] the IC50 was 1.1 nM. For `CC(C)NC(=O)Cn1c(-c2ccc(F)c(Cl)c2)nc2cc(N3CCCN(C)CC3)ccc21` [Example A-22, 2-[2-(3-chloro-4-fluorophenyl)-5-(4-methyl-1,4-diazepan-1-yl)-1H-benzimidazol-1-yl]-N-isopropyl acetamide], the IC50 was 15.4 nM. `CN1CCCN(c2ccc3c(c2)nc(-c2ccc(F)c(Cl)c2)n3CC(=O)NC(C)(C)C)CC1` [Example A-23, N-tert-butyl-2-[2-(3-chloro-4-fluorophenyl)-5-(4-methyl-1,4-diazepan-1-yl)-1H-benzimidazol-1-yl]acetamide] showed an IC50 of 3.1 nM. In the case of `CC(C)NC(=O)Cn1c(-c2cccc(Cl)c2)cc2cc(OCCCN3CCOCC3)ccc21` [Example B-2, 2-{2-(3-chlorophenyl)-5-[3-(morpholin-4-yl)propoxy]-1H-indol-1-yl}-N-isopropyl acetamide], the IC50 is reported as 6.4 nM. For `CC(C)NC(=O)Cn1c(-c2cccc(Cl)c2)cc2cc(OC3CCN(C4CC4)CC3)ccc21` [Example B-3, 2-{2-(3-chlorophenyl)-5-[(1-cyclopropylpiperidin-4-yl)oxy]-1H-indol-1-yl}-N-isopropyl acetamide], the IC50 was 10.4 nM. Work on `CC(C)NC(=O)Cn1c(-c2cccc(Cl)c2)cc2cc(OCCCN3CCC(O)CC3)ccc21` [Example B-6, 2-{2-(3-chlorophenyl)-5-[3-(4-hydroxypiperidin-1-yl)propoxy]-1H-indol-1-yl}-N-isopropyl acetamide] yielded an IC50 of 18.4 nM. `CC(C)NC(=O)Cn1c(-c2cccc(Cl)c2)cc2cc(OCCCN3CCCC(O)C3)ccc21` (stereo not drawn) [Example B-7, 2-{2-(3-chlorophenyl)-5-[3-(3-hydroxypiperidin-1-yl)propoxy]-1H-indol-1-yl}-N-isopropyl acetamide] gave an IC50 of 73.4 nM. With `CC(C)NC(=O)Cn1c(-c2cccc(Cl)c2)cc2cc(OCCCN3CCC(O)C3)ccc21` (stereo not drawn) [Example B-8, 2-{2-(3-chlorophenyl)-5-[3-(3-hydroxypyrrolidin-1-yl)propoxy]-1H-indol-1-yl}-N-isopropyl acetamide] the IC50 was 52.3 nM. In the case of `CC(C)NC(=O)Cn1c(-c2cccc(Cl)c2)cc2cc(OCCCN3CCC4(CC3)COC4)ccc21` [Example B-10, 2-{2-(3-chlorophenyl)-5-[3-(2-oxa-7-azaspiro[3.5]non-7-yl)propoxy]-1H-indol-1-yl}-N-isopropyl acetamide], the IC50 is reported as 20.2 nM. `COc1cc(-c2cc3cc(OCCCN4CCCCC4)ccc3n2CC(=O)NC(C)C)ccc1F` [Example B-11, 2-{2-(4-fluoro-3-methoxyphenyl)-5-[3-(piperidin-1-yl)propoxy]-1H-indol-1-yl}-N-isopropyl acetamide] was tested, and the IC50 was 52.1 nM. `COc1cc(-c2cc3cc(OCCCN4CCC(O)CC4)ccc3n2CC(=O)NC(C)C)ccc1F` [Example B-12, 2-{2-(4-fluoro-3-methoxyphenyl)-5-[3-(4-hydroxypiperidin-1-yl)propoxy]-1H-indol-1-yl}-N-isopropyl acetamide] showed an IC50 of 45.3 nM. `COc1cc(-c2cc3cc(OCCCN4CCCC(O)C4)ccc3n2CC(=O)NC(C)C)ccc1F` (stereo not drawn) [Example B-13, 2-{2-(4-fluoro-3-methoxyphenyl)-5-[3-(3-hydroxypiperidin-1-yl)propoxy]-1H-indol-1-yl}-N-isopropyl acetamide] gave an IC50 of 87.1 nM. `COc1cc(-c2cc3cc(OCCCN4CCC(O)C4)ccc3n2CC(=O)NC(C)C)ccc1F` (stereo not drawn) [Example B-14, 2-{2-(4-fluoro-3-methoxyphenyl)-5-[3-(3-hydroxypyrrolidin-1-yl)propoxy]-1H-indol-1-yl}-N-isopropyl acetamide] was tested, and the IC50 was 87.2 nM. `COc1cc(-c2cc3cc(OCCCN4CC5(COC5)C4)ccc3n2CC(=O)NC(C)C)ccc1F` [Example B-15, 2-{2-(4-fluoro-3-methoxyphenyl)-5-[3-(2-oxa-6-azaspiro[3.3]hept-6-yl)propoxy]-1H-indol-1-yl}-N-isopropyl acetamide] showed an IC50 of 8.3 nM.
